# Patent US11091463B2, “Amide-substituted pyridinyltriazole derivatives and uses thereof” (BAYER PHARMA AKTIENGESELLSCHAFT, priority 2016, dated 2021)
# Target: T1, human V1a receptor (Homo sapiens, UniProt P37288)
# T1 construct: expressed in transfected cells; host or cells: CHO K1 (ATCC), also stably transfected with a modified aequorin
# Assay: Cellular in vitro assay for vasopressin receptor activity, V1a receptor cell line (photoprotein luminescence)
# Type: cell-based
# Details: Table 1A; compounds of the invention; selectivity ratio
# Method: B-1. Cellular In Vitro Assay for Determining Vasopressin Receptor Activity
# The identification of agonists and antagonists of the V1a and V2 vasopressin receptors from humans, rats and dogs as well as the quantification of the activity of the compounds of the invention is carried out using recombinant cell lines. These cell lines originally derive from a hamster's ovary epithelial cell (Chinese Hamster Ovary, CHO K1, ATCC: American Type Culture Collection, Manassas, Va. 20108, USA). The test cell lines constitutively express the human, rat or dog V1a or V2 receptors. In case of the Gαq-coupled V1a receptors, cells are also stably transfected with a modified form of the calcium-sensitive photoproteins aequorin (human and rat V1a) or obelin (dog V1a), which, after reconstitution with the cofactor coelenterazine, emit light when there are increases in free calcium concentrations [Rizzuto R, Simpson A W, Brini M, Pozzan T, Nature, 358, 325-327 (1992); Illarionov B A, Bondar V S, Illarionova V A, Vysotski E S, Gene, 153 (2), 273-274 (1995)]. The resulting vasopressin receptor cells react to stimulation of the recombinantly expressed V1a receptors by intracellular release of calcium ions, which can be quantified by the resulting photoprotein luminescence. The Gs-coupled V2 receptors are stably transfected into cell lines expressing the gene for firefly luciferase under control of a CRE-responsible promoter. Activation of V2 receptors induces the activation of the CRE-responsive promoter via cAMP increase, thereby inducing the expression of firefly luciferase. The light emitted by photoproteins of V1a cell lines as well as the light emitted by firefly luciferase of V2 cell lines corresponds to the activation or inhibition of the respective vasopressin receptor. The bioluminescence of the cell lines is detected using a suitable luminometer [Milligan G, Marshall F, Rees S, Trends in Pharmacological Sciences, 17, 235-237 (1996)].
# Vasopressin V1a Receptor Cell Lines:
# On the day before the assay, the cells are plated out in culture medium (DMEM/F12, 2% FCS, 2 mM glutamine, 10 mM HEPES, 5 μg/ml coelenterazine) in 384-well microtiter plates and kept in a cell incubator (96% humidity, 5% v/v CO2, 37° C.). On the day of the assay, test compounds in various concentrations are placed for 10 minutes in the wells of the microtiter plate before the agonist [Arg^8]-vasopressin at EC50 concentration is added. The resulting light signal is measured immediately in a luminometer.
# Table 1A below lists individual IC50 values for the compounds of the invention (including racemic mixtures as well as separated enantiomers) that were obtained from cell lines transfected with the human V1a or V2 receptor: […]
# T1 sequence (P37288 whole entry): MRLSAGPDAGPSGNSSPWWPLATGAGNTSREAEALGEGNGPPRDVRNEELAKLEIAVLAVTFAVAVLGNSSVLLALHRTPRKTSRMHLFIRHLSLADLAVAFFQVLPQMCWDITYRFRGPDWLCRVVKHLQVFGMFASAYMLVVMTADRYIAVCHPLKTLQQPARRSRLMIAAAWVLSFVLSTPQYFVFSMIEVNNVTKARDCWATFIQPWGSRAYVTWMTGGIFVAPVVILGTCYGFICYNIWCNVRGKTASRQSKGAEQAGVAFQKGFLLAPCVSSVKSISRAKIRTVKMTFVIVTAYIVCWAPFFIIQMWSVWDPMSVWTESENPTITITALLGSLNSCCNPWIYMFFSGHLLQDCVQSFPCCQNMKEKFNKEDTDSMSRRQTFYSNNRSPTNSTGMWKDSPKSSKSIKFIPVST
row,ratio IC50 hV2/hV1a,Compound
1,38.2,"NC(=O)c1nc(Cn2nc(-c3ccc(Cl)cc3)n(C[C@H](O)C(F)(F)F)c2=O)nn1-c1ncccc1Cl [Example 1, 3-({3-(4-Chlorophenyl)-5-oxo-4-[(2S)-3,3,3-trifluoro-2-hydroxypropyl]-4,5-dihydro-1H-1,2,4-triazol-1-yl}methyl)-1-(3-chloropyridin-2-yl)-1H-1,2,4-triazole-5-carboxamide]"
2,141.0,"NC(=O)c1nc(Cn2nc(-c3ccc(Cl)cc3)n(C[C@H](O)C(F)(F)F)c2=O)nn1-c1ncccc1C(F)(F)F [Example 2, 3-({3-(4-Chlorophenyl)-5-oxo-4-[(2S)-3,3,3-trifluoro-2-hydroxypropyl]-4,5-dihydro-1H-1,2,4-triazol-1-yl}methyl)-1-[3-(trifluoromethyl)pyridin-2-yl]-1H-1,2,4-triazole-5-carboxamide]"
3,54.7,"NC(=O)c1nc(Cn2nc(-c3ccc(Cl)cc3)n(C[C@H](O)C(F)(F)F)c2=O)nn1-c1ncccc1OC(F)(F)F [Example 3, 3-({3-(4-Chlorophenyl)-5-oxo-4-[(2S)-3,3,3-trifluoro-2-hydroxypropyl]-4,5-dihydro-1H-1,2,4-triazol-1-yl}methyl)-1-[3-(trifluoromethoxy)pyridin-2-yl]-1H-1,2,4-triazole-5-carboxamide]"
4,72.6,"NC(=O)c1nc(Cn2nc(-c3ccc(Cl)cc3)n(C[C@H](O)C(F)(F)F)c2=O)nn1-c1ncccc1Br [Example 4, 1-(3-Bromopyridin-2-yl)-3-({3-(4-chlorophenyl)-5-oxo-4-[(2S)-3,3,3-trifluoro-2-hydroxypropyl]-4,5-dihydro-1H-1,2,4-triazol-1-yl}methyl)-1H-1,2,4-triazole-5-carboxamide]"
5,85.9,"CCOC(=O)c1cccnc1-n1nc(Cn2nc(-c3ccc(Cl)cc3)n(C[C@H](O)C(F)(F)F)c2=O)nc1C(N)=O [Example 5, Ethyl 2-[5-carbamoyl-3-({3-(4-chlorophenyl)-5-oxo-4-[(2S)-3,3,3-trifluoro-2-hydroxypropyl]-4,5-dihydro-1H-1,2,4-triazol-1-yl}methyl)-1H-1,2,4-triazol-1-yl]nicotinate]"
6,43.9,"NC(=O)c1nc(Cn2nc(-c3ccc(Cl)cc3)n(C[C@H](O)C(F)(F)F)c2=O)nn1-c1cnccc1Cl [Example 6, 3-({3-(4-Chlorophenyl)-5-oxo-4-[(2S)-3,3,3-trifluoro-2-hydroxypropyl]-4,5-dihydro-1H-1,2,4-triazol-1-yl}methyl)-1-(4-chloropyridin-3-yl)-1H-1,2,4-triazole-5-carboxamide]"
7,117.3,"NC(=O)c1nc(Cn2nc(-c3ccc(Cl)cc3)n(C[C@H](O)C(F)(F)F)c2=O)nn1-c1cnccc1C(F)(F)F [Example 7, 3-({3-(4-Chlorophenyl)-5-oxo-4-[(2S)-3,3,3-trifluoro-2-hydroxypropyl]-4,5-dihydro-1H-1,2,4-triazol-1-yl}methyl)-1-[4-(trifluoromethyl)pyridin-3-yl]-1H-1,2,4-triazole-5-carboxamide]"
8,35.0,"CCOC(=O)c1ccncc1-n1nc(Cn2nc(-c3ccc(Cl)cc3)n(C[C@H](O)C(F)(F)F)c2=O)nc1C(N)=O [Example 8, Ethyl 3-[5-carbamoyl-3-({3-(4-chlorophenyl)-5-oxo-4-[(2S)-3,3,3-trifluoro-2-hydroxypropyl]-4,5-dihydro-1H-1,2,4-triazol-1-yl}methyl)-1H-1,2,4-triazol-1-yl]isonicotinate]"
9,30.0,"NC(=O)c1cccnc1-n1nc(Cn2nc(-c3ccc(Cl)cc3)n(C[C@H](O)C(F)(F)F)c2=O)nc1C(N)=O [Example 9, 2-[5-carbamoyl-3-({3-(4-chlorophenyl)-5-oxo-4-[(2S)-3,3,3-trifluoro-2-hydroxypropyl]-4,5-dihydro-1H-1,2,4-triazol-1-yl}methyl)-1H-1,2,4-triazol-1-yl]nicotinamide]"
10,116.2,"NC(=O)c1nc(Cn2nc(-c3ccc(Cl)cc3)n(C[C@@H](O)C(F)(F)F)c2=O)nn1-c1ncccc1Cl [Example 10, 3-({3-(4-Chlorophenyl)-5-oxo-4-[(2R)-3,3,3-trifluoro-2-hydroxypropyl]-4,5-dihydro-1H-1,2,4-triazol-1-yl}methyl)-1-(3-chloropyridin-2-yl)-1H-1,2,4-triazole-5-carboxamide]"
11,196.8,"NC(=O)c1nc(Cn2nc(-c3ccc(Cl)cc3)n(C[C@@H](O)C(F)(F)F)c2=O)nn1-c1ncccc1C(F)(F)F [Example 11, 3-({3-(4-Chlorophenyl)-5-oxo-4-[(2R)-3,3,3-trifluoro-2-hydroxypropyl]-4,5-dihydro-1H-1,2,4-triazol-1-yl}methyl)-1-[3-(trifluoromethyl)pyridin-2-yl]-1H-1,2,4-triazole-5-carboxamide]"
12,249.3,"NC(=O)c1nc(Cn2nc(-c3ccc(Cl)cc3)n(C[C@@H](O)C(F)(F)F)c2=O)nn1-c1cnccc1Cl [Example 12, 3-({3-(4-Chlorophenyl)-5-oxo-4-[(2R)-3,3,3-trifluoro-2-hydroxypropyl]-4,5-dihydro-1H-1,2,4-triazol-1-yl}methyl)-1-(4-chloropyridin-3-yl)-1H-1,2,4-triazole-5-carboxamide]"
13,431.3,"NC(=O)c1nc(Cn2nc(-c3ccc(Cl)cc3)n(C[C@@H](O)C(F)(F)F)c2=O)nn1-c1cnccc1C(F)(F)F [Example 13, 3-({3-(4-Chlorophenyl)-5-oxo-4-[(2R)-3,3,3-trifluoro-2-hydroxypropyl]-4,5-dihydro-1H-1,2,4-triazol-1-yl}methyl)-1-[4-(trifluoromethyl)pyridin-3-yl]-1H-1,2,4-triazole-5-carboxamide]"
14,20.0,"NC(=O)c1nc(Cn2nc(-c3ccc(Cl)cc3)n(CC(=O)C(F)(F)F)c2=O)nn1-c1ncccc1Cl [Example 14, 3-{[3-(4-Chlorophenyl)-5-oxo-4-(3,3,3-trifluoro-2-oxopropyl)-4,5-dihydro-1H-1,2,4-triazol-1-yl]methyl}-1-(3-chloropyridin-2-yl)-1H-1,2,4-triazole-5-carboxamide (ketone form) or 3-{[3-(4-chlorophenyl)-5-oxo-4-(3,3,3-trifluoro-2,2-dihydroxypropyl)-4,5-dihydro-1H-1,2,4-triazol-1-yl]methyl}-1-[2-(trifluoromethyl)phenyl]-1H-1,2,4-triazole-5-carboxamide (hydrate form)]"
15,47.2,"NC(=O)c1nc(Cn2nc(-c3ccc(Cl)cc3)n(CC(=O)C(F)(F)F)c2=O)nn1-c1ncccc1Br [Example 15, 1-(3-Bromopyridin-2-yl)-3-{[3-(4-chlorophenyl)-5-oxo-4-(3,3,3-trifluoro-2-oxopropyl)-4,5-dihydro-1H-1,2,4-triazol-1-yl]methyl}-1H-1,2,4-triazole-5-carboxamide (ketone form) or 1-(3-Bromopyridin-2-yl)-3-{[3-(4-chlorophenyl)-5-oxo-4-(3,3,3-trifluoro-2,2-dihydroxypropyl)-4,5-dihydro-1H-1,2,4-triazol-1-yl]methyl}-1H-1,2,4-triazole-5-carboxamide (hydrate form)]"
